Experimental data taken from the supplement of paper PMC10307832.

How the values were obtained:
Assay in all cases: relative viability (nuclei count vs DMSO), 5 days (fraction); higher = more cells survive
[1] = tested on: NCI-H1666
How it was run: (§1)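 After 5 days of treatment, lung cancer cells in 1536-well plates were fixed and stained in a single step (final 0.05% Triton X-100, 1% formaldehyde, 1 ug/ml Hoechst) and their nuclei counted on 4× images. Treatment had been applied by pin tool the day after seeding as one drug alone or as a fixed anchor-drug dose with five library-drug doses (not always all listed) in √10 steps. Relative viability is the nuclei count of treated wells divided by that of vehicle wells, and values are medians of duplicate plates.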

[2] = tested on: LK-2
How it was run: as §1

[3] = tested on: RERF-LC-KJ
How it was run: as §1

[4] = tested on: LU99A
How it was run: as §1

[5] = tested on: HCC-366
How it was run: as §1

[6] = tested on: NCI-H23
How it was run: as §1

[7] = tested on: NCI-H2085
How it was run: as §1

[8] = tested on: LCLC-103H
How it was run: as §1

[9] = tested on: LOU-NH91
How it was run: as §1

[10] = tested on: LXF-289
How it was run: as §1

[11] = tested on: NCI-H2126
How it was run: as §1

[12] = tested on: HCC-44
How it was run: as §1

[13] = tested on: NCI-H2405
How it was run: as §1

[14] = tested on: SW 1573
How it was run: as §1

[15] = tested on: NCI-H1975
How it was run: as §1

[16] = tested on: HCC-78
How it was run: as §1

[17] = tested on: SK-LU-1
How it was run: as §1

[18] = tested on: EPLC-272H
How it was run: as §1

[19] = tested on: EMC-BAC-2
How it was run: as §1

[20] = tested on: NCI-H3122
How it was run: as §1

[21] = tested on: NCI-H1563
How it was run: as §1

[22] = tested on: HCC-827
How it was run: as §1

In the case of `Clc1ccc(Nc2nnc(Cc3ccncc3)c3ccccc23)cc1` [Vatalanib] + C[C@]1(O)C[C@@H](c2nc(-c3ccc4ccc(-c5ccccc5)nc4c3)c3c(N)nccn32)C1 [Linsitinib] (partner 1 µM), the relative viability ([1]; first compound 0.04 µM) was 0.805, the relative viability ([1]; first compound 0.1265 µM) was 0.891 and the relative viability ([1]; first compound 0.4 µM) was 0.923. It also gave a relative viability ([1]; first compound 1.265 µM) of 0.779, a relative viability ([1]; first compound 4 µM) of 0.708 and a relative viability ([2]; first compound 0.04 µM) of 0.712. The relative viability ([2]; first compound 0.1265 µM) was 0.423, the relative viability ([2]; first compound 0.4 µM) was 0.541 and the relative viability ([2]; first compound 1.265 µM) was 0.435. The relative viability ([2]; first compound 4 µM) was 0.704, the relative viability ([3]; first compound 0.04 µM) was 0.932 and the relative viability ([3]; first compound 0.1265 µM) was 0.875. It also gave a relative viability ([3]; first compound 0.4 µM) of 0.933, a relative viability ([3]; first compound 1.265 µM) of 0.762 and a relative viability ([3]; first compound 4 µM) of 0.812. The relative viability ([4]; first compound 0.04 µM) was 0.545, the relative viability ([4]; first compound 0.1265 µM) was 0.585 and the relative viability ([4]; first compound 0.4 µM) was 0.558. For the same compound, the relative viability ([4]; first compound 1.265 µM) was 0.534, the relative viability ([4]; first compound 4 µM) was 0.49 and the relative viability ([5]; first compound 0.04 µM) was 0.722. For the same compound, the relative viability ([5]; first compound 0.1265 µM) was 0.456, the relative viability ([5]; first compound 0.4 µM) was 0.725 and the relative viability ([5]; first compound 1.265 µM) was 0.542. It also gave a relative viability ([5]; first compound 4 µM) of 0.609, a relative viability ([6]; first compound 0.04 µM) of 0.533 and a relative viability ([6]; first compound 0.1265 µM) of 0.659. For the same compound, the relative viability ([6]; first compound 0.4 µM) was 0.601, the relative viability ([6]; first compound 1.265 µM) was 0.495 and the relative viability ([6]; first compound 4 µM) was 0.583. For the same compound, the relative viability ([7]; first compound 0.04 µM) was 0.919, the relative viability ([7]; first compound 0.1265 µM) was 0.974 and the relative viability ([7]; first compound 0.4 µM) was 1.05. For the same compound, the relative viability ([7]; first compound 1.265 µM) was 0.846, the relative viability ([7]; first compound 4 µM) was 0.886 and the relative viability ([8]; first compound 0.04 µM) was 1.24. The relative viability ([8]; first compound 0.1265 µM) was 1.07, the relative viability ([8]; first compound 0.4 µM) was 1.24 and the relative viability ([8]; first compound 1.265 µM) was 1.06. The relative viability ([8]; first compound 4 µM) was 1.05, the relative viability ([9]; first compound 0.04 µM) was 1.02 and the relative viability ([9]; first compound 0.1265 µM) was 0.921. It also gave a relative viability ([9]; first compound 0.4 µM) of 0.757, a relative viability ([9]; first compound 1.265 µM) of 0.913 and a relative viability ([9]; first compound 4 µM) of 0.89. It also gave a relative viability ([10]; first compound 0.04 µM) of 1.04, a relative viability ([10]; first compound 0.1265 µM) of 0.947 and a relative viability ([10]; first compound 0.4 µM) of 0.957. It also gave a relative viability ([10]; first compound 1.265 µM) of 0.888, a relative viability ([10]; first compound 4 µM) of 0.919 and a relative viability ([11]; first compound 0.04 µM) of 0.669. For the same compound, the relative viability ([11]; first compound 0.1265 µM) was 0.72, the relative viability ([11]; first compound 0.4 µM) was 0.669 and the relative viability ([11]; first compound 1.265 µM) was 0.729. For the same compound, the relative viability ([11]; first compound 4 µM) was 0.739, the relative viability ([12]; first compound 0.04 µM) was 0.683 and the relative viability ([12]; first compound 0.1265 µM) was 0.643. For the same compound, the relative viability ([12]; first compound 0.4 µM) was 0.676, the relative viability ([12]; first compound 1.265 µM) was 0.636 and the relative viability ([12]; first compound 4 µM) was 0.679. It also gave a relative viability ([13]; first compound 0.04 µM) of 0.951, a relative viability ([13]; first compound 0.1265 µM) of 0.901 and a relative viability ([13]; first compound 1.265 µM) of 0.868. The relative viability ([13]; first compound 4 µM) was 0.93, the relative viability ([14]; first compound 0.04 µM) was 1 and the relative viability ([14]; first compound 0.1265 µM) was 0.791. The relative viability ([14]; first compound 0.4 µM) was 0.781, the relative viability ([14]; first compound 1.265 µM) was 0.802 and the relative viability ([14]; first compound 4 µM) was 0.723. For the same compound, the relative viability ([15]; first compound 0.04 µM) was 0.889, the relative viability ([15]; first compound 0.1265 µM) was 0.92 and the relative viability ([15]; first compound 0.4 µM) was 1.1. For the same compound, the relative viability ([15]; first compound 1.265 µM) was 0.834, the relative viability ([15]; first compound 4 µM) was 0.86 and the relative viability ([16]; first compound 0.04 µM) was 0.507. It also gave a relative viability ([16]; first compound 0.1265 µM) of 0.467, a relative viability ([16]; first compound 0.4 µM) of 0.527 and a relative viability ([16]; first compound 4 µM) of 0.448. It also gave a relative viability ([17]; first compound 0.04 µM) of 1.45, a relative viability ([17]; first compound 0.1265 µM) of 1.13 and a relative viability ([17]; first compound 0.4 µM) of 1.28. The relative viability ([17]; first compound 1.265 µM) was 1.04, the relative viability ([17]; first compound 4 µM) was 1.03 and the relative viability ([18]; first compound 0.04 µM) was 1.2. It also gave a relative viability ([18]; first compound 0.1265 µM) of 1.19, a relative viability ([18]; first compound 0.4 µM) of 1.27 and a relative viability ([18]; first compound 1.265 µM) of 1.18. It also gave a relative viability ([18]; first compound 4 µM) of 1.31, a relative viability ([19]; first compound 0.04 µM) of 0.817 and a relative viability ([19]; first compound 0.1265 µM) of 0.762. For the same compound, the relative viability ([19]; first compound 0.4 µM) was 0.793, the relative viability ([19]; first compound 1.265 µM) was 0.808 and the relative viability ([19]; first compound 4 µM) was 0.802. For the same compound, the relative viability ([20]; first compound 0.04 µM) was 1.14, the relative viability ([20]; first compound 0.1265 µM) was 0.97 and the relative viability ([20]; first compound 0.4 µM) was 0.961. It also gave a relative viability ([20]; first compound 1.265 µM) of 1.02, a relative viability ([20]; first compound 4 µM) of 1.02 and a relative viability ([21]; first compound 0.04 µM) of 1.42. It also gave a relative viability ([21]; first compound 0.1265 µM) of 1.27, a relative viability ([21]; first compound 0.4 µM) of 1.24 and a relative viability ([21]; first compound 1.265 µM) of 1.12. The relative viability ([21]; first compound 4 µM) was 1.2, the relative viability ([22]; first compound 0.04 µM) was 0.992 and the relative viability ([22]; first compound 0.1265 µM) was 0.925. It also gave a relative viability ([22]; first compound 0.4 µM) of 0.95, a relative viability ([22]; first compound 1.265 µM) of 0.936 and a relative viability ([22]; first compound 4 µM) of 0.905.
